Measurements taken from patent US8222229B2, “Peritoneal dialysis method” (Kowa Co., Ltd., priority 2002, dated 2012).

Tested on: HPMC (human peritoneal mesothelial cells)
Assay: HPMC viability under high level glucose, cell counting (WST-1)
Assay type: cell-based
Conditions: for effect on decrease in the viability of HPMC attributed to glucose (as measured by absorbance): preincubation 3 h with 0, 10, 100, 1,000 μM test substance, then 8 h in glucose 5.8 mM, 75 mM, 140 mM, WST-1
Description: Peritoneal mesothelial cells (HPMC) were preincubated for three hours in culture media (M199) containing ATP (0, 10, 100, and 1,000 μM). The cells were washed with an HPMC culture medium (saline buffer) and then incubated for eight hours in culture media (M199) containing glucose at three different levels (5.8 mM, 75 mM, and 140 mM). HPMC viability was obtained through cell counting (WST-1).
Instead of ATP, adenosine, which is a metabolite of ATP, was employed to study the effect of adenosine on decrease in HPMC viability caused by high level glucose.
Prior to the step of preincubation with ATP-containing culture media in the procedure of Example 1, HPMC were preincubated for 30 minutes with each of the following selective ATP receptor antagonists: (1) Suramin (P2X, P2Y receptor antagonist; 10 μM), (2) Reactive Blue 2 (P2Y receptor antagonist; 30 μM), and (3) PPADS (P2X receptor antagonist; 10 μM). Thereafter, the test was performed as described in Example 1.

For `Nc1ncnc2c1ncn2[C@@H]1O[C@H](COP(=O)(O)OP(=O)(O)OP(=O)(O)O)[C@@H](O)[C@H]1O` [ATP, adenosine triphosphate], the “ATP's effect on decrease in the viability of HPMC attributed to glucose after ATP receptor antagonist pretreatment” value (HPMC preincubated 30 min with Suramin 10 μM, Reactive Blue 2 30 μM or PPADS 10 μM before ATP preincubation, glucose 5.8, 75, 140 mM) was “no effect of alleviating reduction in HPMC viability” and the “effect on decrease in the viability of HPMC attributed to glucose (as measured by absorbance)” value was “decrease in viability caused by high level glucose was significantly alleviated”.
With `Nc1ncnc2c1ncn2[C@@H]1O[C@H](CO)[C@@H](O)[C@H]1O` [Adenosine, adenosine, reference compound] the “effect on decrease in the viability of HPMC attributed to glucose (as measured by absorbance)” value was “no effect of alleviating decrease in HPMC viability”.
